Results published in US8399206B2, “Methods for diagnosis, prognosis and methods of treatment” (Nodality, Inc., priority 2008, dated 2013).

Experiments:
AML blasts = test: SCNP / phospho-flow modulated signaling assay, AML study No. 1 (PBMC at diagnosis, CR vs NR); type: cell-based, human
Text: The present illustrative example represents how to analyze cells in one embodiment of the present invention. There are several steps in the process, such as the stimulation step, the staining step and the flow cytometry step. The stimulation step of the phospho-flow procedure can start with vials of frozen cells and end with cells fixed and permeabilized in methanol. Then the cells can be stained with an antibody directed to a particular protein of interest and then analyzed using a flow cytometer.
Frozen cells are thawed in a 37° C. water bath and gently resuspended in the vial and transferred to the 15 mL conical tube. The 15 mL tube is centrifuged at 930 RPM (200×g) for 8 minutes at room temperature. The supernatant is aspirated and the pellet is gently resuspended in 1 mL media A. The cell suspension is filtered through a 70 um cell strainer into a new 15 mL tube. The cell strainer is rinsed with 1 mL media A and another 12 ml of media A into the 15 mL tube. The cells are mixed into an even suspension. A 20 μL aliquot is immediately removed into a 96-well plate containing 180 μL PBS+4% FBS+CD45 Alexa 700+PI to determine cell count and viability post spin. After the determination, the 15 mL tubes are centrifuged at 930 RPM (200×g) for 8 minutes at room temperature. The supernatant is aspirated and the cell pellet is gently resuspended in 4 mL PBS+4 μL Amine Aqua and incubated for 15 min in a 37° C. incubator. 10 mL RPMI+1% FBS is added to the cell suspension and the tube is inverted to mix the cells. The 15 mL tubes are centrifuged at 930 RPM (200×g) for 8 minutes at room temperature. The cells are resuspended in Media A at the desired cell concentration (1.25×10^6/mL). For samples with low numbers of cells (<18.5×10^6), the cells are resuspended in up to 15 mL media. For samples with high numbers of cells (>18.5×10^6), the volume is raised to 10 mL with media A and the desired volume is transferred to a new 15 mL tube, and the cell concentration is adjusted to 1.25×10^6 cells/ml. 1.6 mL of the above cell suspension (concentration at 1.25×10^6 cells/ml) is transferred into wells of a multi-well plate. From this plate, 80 ul is dispensed into each well of a subsequent plate. The plates are covered with a lid (Nunc) and placed in a 37° C. incubator for 2 hours to rest.
A concentration for each stimulant that is five folds more (5×) than the final concentration is prepared using Media A as diluent. 5× stimuli are arrayed into wells of a standard 96 well v-bottom plate that correspond to the wells on the plate with cells to be stimulated.
Adding the stimulant: The cell plate(s) are taken out of the incubator and placed in a 37° C. water bath next to the pipette apparatus. The cell plate is taken from the water bath and gently swirled to resuspend any settled cells. With pipettor, the stimulant is dispensed into the cell plate and vortexed at “7” for 5 seconds. The deep well plate is put back into the water bath.
Adding Fixative: 200 μl of the fixative solution (final concentration at 1.6%) is dispensed into wells and then mixed on the titer plate shaker on high for 5 seconds. The plate is covered with foil sealer and incubated in a 37° C. water bath for 10 minutes. The plate is spun for 6 minutes at 2000 rpm at room temperature. The cells are aspirated using a 96 well plate aspirator (VP Scientific). The plate is vortexed to resuspend cell pellets in the residual volume. The pellet is ensured to be dispersed before the Methanol step (see cell permeabilization) or clumping will occur.
Cell Permeabilization: Permeability agent, for example methanol, is added slowly and while the plate is vortexing. To do this, the cell plate is placed on titer plate shaker and made sure it is secure. The plate is set to shake using the highest setting. A pipetter is used to add 0.6 mls of 100% methanol to the plate wells. The plate(s) are put on ice until this step has been completed for all plates.

AML BMMC leukemic blasts = test: SCNP modulated signaling assay, AML study No. 2 (BMMC, CR vs NR, clinical sub-groups); type: cell-based, human
Method: Two independent sets of cryopreserved samples were analyzed sequentially. The first set consisted of 35 peripheral blood mononuclear cell (PBMC) samples derived from AML patients. The second set consisted of 134 cryopreserved bone marrow mononuclear cell (BMMC) samples derived from AML patients. These samples were the same samples used in the previous examples. Sample inclusion criteria required collection prior to initiation of induction chemotherapy, AML classification by the French-American-British (FAB) criteria as M0 through M7 (excluding M3) and availability of clinical annotations.
In the first study, induction chemotherapy consisted of at least one cycle of standard cytarabine-based induction therapy (i.e. daunorubicin 60 mg/m^2×3 days, cytarabine 100-200 mg/m^2 continuous infusion×7 days); responses were measured after one cycle of induction therapy. In the second study, cytarabine (200 mg/m^2 to 3 g/m^2) was used in combination with an anthracycline (daunorubicin or idarubicin) or an additional anti-metabolite (e.g. fludarabine or troxacitabine), and sometimes, an experimental agent (Table 16). […] Standard clinical and laboratory criteria were used for defining complete response (CR) in both studies. […] Classified as “CRp,” these samples were included in the CR group for all primary analysis. The univariate analyses were also repeated with the CRp patients classified into the NR sample group for sensitivity analysis.
Cyropreserved samples were thawed at […], washed and centrifuged in PBS, 10% FBS and 2 mM EDTA. The cells were re-suspended, filtered to remove debris and washed in RPMI cell culture media, 1% FBS, then stained with Live/Dead Fixable Aqua Viability Dye to distinguish non-viable cells. The cells were then re-suspended in RPMI, 1% FBS, aliquoted to 100,000 cells/condition and rested for 1-2 hours at 37° C. prior to SCNP assays. Each condition included two to five phenotypic markers for cell population gating (eg, CD45, CD33), up to three intracellular stains or up to three additional surface markers or control antibodies for an eight-color flow cytometry assay.
Functional assays were performed as previously described. Cells were incubated with modulators (Table 18), at 37° C. for 3-15 minutes, fixed with 1.6% paraformaldehyde (final concentration) for 10 minutes at 37° C., pelleted and permeabilized with 100% ice-cold methanol and stored at −80° C.
Data was acquired using FACS DIVA software on both LSR II and CANTO II Flow Cytometers (BD). For all analyses, dead cells and debris were excluded by forward scatter (FSC), side scatter (SSC), and Amine Aqua Viability Dye measurement. Leukemic cells were identified as cells that lacked the characteristics of mature lymphocytes (CD45^++, CD33^−) and that fit the CD45 and CD33 versus right-angle light-scatter characteristics consistent with myeloid leukemia cells.
The median fluorescence intensity (MFI) was computed for each node from the fluorescence intensity levels for the cells in the myeloid population. The MFI values were then used to compute a variety of metrics by comparing them to baseline or background values, including the unmodulated condition, cellular autofluorescence and antibody isotype controls. The following metrics were computed: • 1. Basal MFI (“Basal”)=log2(MFIUnmodulated Stained)−log2(MFIGated Unstained (Autofluoresence)), designed to measure the basal levels of a certain protein under unmodulated conditions. • 2.

[1] = Study No. 1 sensitivity analysis, CR samples
[2] = Study No. 1 sensitivity analysis, NR samples incl. CRp
[3] = Study No. 2, all patients, CR samples
[4] = Study No. 2, all patients, CR samples, negative = down regulation
[5] = Study No. 2, all patients, NR samples

Compound: IL-10: interleukin 10, cytokine modulator
- Mean Value of CRs, p-Stat1 Total Phospho (AML blasts; [1]): 0.17
- Mean Value of CRs, p-Stat3 Total Phospho (AML blasts; [1]): 0.72
- Mean Value of NRs, p-Stat1 Total Phospho (AML blasts; [2]): 0.47
- Mean Value of NRs, p-Stat3 Total Phospho (AML blasts; [2]): 1.69
- Mean Value of CRs, p-Stat5 Fold (AML BMMC leukemic blasts; [3]): 0.09
- Mean Value of CRs, p-Stat3 Fold (AML BMMC leukemic blasts; [4]): 0.08
- Mean Value of NRs, p-Stat3 Fold (AML BMMC leukemic blasts; [5]): 0.39
- Mean Value of CRs, p-Stat5 Fold (AML BMMC leukemic blasts; Study No. 2, patients with de novo AML, CR samples): 0.06

Compound: CCCCCCCCCCCCCC(=O)O[C@@H]1[C@@H](C)[C@@]2(O)[C@@H](C=C(CO)C[C@]3(O)C(=O)C(C)=C[C@@H]23)[C@@H]2C(C)(C)[C@]12OC(C)=O [PMA, reference compound]
- Mean Value of CRs, p-Erk Fold (AML BMMC leukemic blasts; [3]): 2.82
- Mean Value of CRs, p-CREB Total Phospho (AML BMMC leukemic blasts; Study No. 2, patients less than 60 years old, CR samples): 3.72
- Mean Value of NRs, p-CREB Total Phospho (AML BMMC leukemic blasts; Study No. 2, patients less than 60 years old, NR samples): 5.00

Compound: IL-6: interleukin 6, cytokine modulator
- Mean Value of CRs, p-CREB Total Phospho (AML blasts; [1]): 1.58
- Mean Value of CRs, p-Stat3 Total Phospho (AML blasts; [1]): 1.08
- Mean Value of NRs, p-CREB Total Phospho (AML blasts; [2]): 2.44
- Mean Value of NRs, p-Stat3 Total Phospho (AML blasts; [2]): 1.81
- Mean Value of CRs, p-Stat3 Total Phospho (AML BMMC leukemic blasts; [3]): 1.76
- Mean Value of CRs, p-Stat5 Fold (AML BMMC leukemic blasts; [3]): 0.13
- Mean Value of CRs, p-Stat1 Fold (AML BMMC leukemic blasts; [4]): −0.01
- Mean Value of CRs, p-Stat3 Fold (AML BMMC leukemic blasts; [4]): 0.12
- Mean Value of NRs, p-Stat1 Fold (AML BMMC leukemic blasts; [5]): 0.26
- Mean Value of NRs, p-Stat3 Fold (AML BMMC leukemic blasts; [5]): 1.09
- Mean Value of NRs, p-Stat3 Total Phospho (AML BMMC leukemic blasts; [5]): 2.98
- Mean Value of NRs, p-Stat5 Fold (AML BMMC leukemic blasts; [5]): 0.55

Compound: GM-CSF: granulocyte macrophage stimulating factor
- increase in p-Akt and p-S6 levels (AML blasts; Staurosporine Resistant category vs other apoptosis categories): greatest increase in p-Akt and p-S6 levels
- Mean Value of CRs, p-Stat3 Total Phospho (AML blasts; [1]): 0.83
- Mean Value of NRs, p-Stat3 Total Phospho (AML blasts; [2]): 1.23
- Jak/Stat response (G-CSF: p-Stat3, p-Stat5; GM-CSF: p-Stat5) (AML blasts; all samples of the Staurosporine Resistant apoptosis category): Robust Jak/Stat responses
